# Reference: patent US11510410B2, “Pediculicidal composition” (DR. REDDY'S LABORATORIES, S.A., priority 2013, dated 2022)
# Experiments:
# [1] = test system: Pediculus humanus capitis eggs; assay: Effect of formulated 5,5′-dimethyl-2,2′-dipyridyl on egg hatching (Example 3); settings: for Stage of development: eggs with eye development / Stage of development: eggs with no eye development / Stage of development: eggs hatched: 10 eggs
# Protocol: Gravid female lice were permitted to lay eggs over a 24 hour period. The eggs were counted, inspected under a light microscope and all eggs that appeared undamaged were allocated to one of two treatment groups. One group of 10 eggs was exposed to 5,5′-dimethyl-2,2′-dipyridyl in a formulation (52-06-01), while the second group of 10 eggs was exposed to the formulation only (vehicle, 52-06-02) Table 2. The two formulations were as follows: […]
# Following a 10 minute exposure to either the 52-06-01 or […] formulations the eggs were subsequently washed for 1 minute with water (˜37° C.) before being placed at 31° C. in a humid incubator and monitored over time for signs of development specifically of the eyes and through to subsequent hatching.
# [2] = test system: Pediculus humanus humanus eggs; assay: In vitro ovicidal efficacy, 0.74% w/w composition versus vehicle (Example 6); settings: compared to the vehicle formulation
# Protocol: This formulation including 0.5% BHT was also evaluated for its ovicidal activity.
# [3] = test system: Pediculus humanus capitis eggs; assay: Ex vivo ovicidal efficacy, double-blind vehicle-controlled randomized clinical trial (Example 7)
# Protocol: In this study the formulation as listed in Table 9 containing 0.74% 5,5′-dimethyl-2,2′-dipyridyl, (abametapir), was evaluated in a double-blind, vehicle-controlled randomized clinical trial. The primary aim of the trial was to evaluate the ovicidal efficacy of a single application of abametapir lotion 0.74% w/w intended for the treatment of head lice. The primary end point was the proportion of hatched eggs pre-treatment relative to proportion of hatched eggs post-treatment for the formulation containing abametapir and vehicle treated eggs following a 14 day incubation.
# This ex vivo study involved identifying subjects with an active head lice infestation (active being defined as the presence of at least 3 live lice and at least 10 undamaged eggs). A minimum of 5 undamaged eggs were collected both pre and post treatment and their predicted viability assessed under a dissecting microscope before being incubated in a temperature and humidity controlled incubator (30° C. and 60% RH) for 14 days to provide adequate time for the eggs to hatch. After 14 days eggs were assessed as either hatched, unhatched, or partially hatched.
# [4] = test system: head lice Pediculus humanus capitis infestation; assay: In vivo efficacy in subjects with head lice infestation, two dose levels (Example 8); settings: single 10 minute application, human subjects 3 years or older
# Protocol: (§1) One hundred and forty two (142) pediatric and adult subjects, three (3) years of age or older, with an active head lice infestation were enrolled in the study. This study assessed the efficacy of a single application of 2 different dose levels (0.37% w/w and 0.74% w/w of 5,5′-dimethyl-2,2′-dipyridyl) compared to a vehicle control. The formulations were prepared as described in Table 9. Subjects were treated for 10 minutes with a lotion containing one of two dose levels of 5,5′-dimethyl-2,2′-dipyridyl or the vehicle lotion. After 10 minutes the lotion was rinsed out of the subjects hair with water and towel dried. At day 1, 7 and 14 post treatment the hair was examined for the presence of live lice. If any live lice were detected on any of the three visits the subject was deemed a treatment failure. The primary endpoint to the study was that proportion of subjects who were lice free at day 14.
# [5] = Safety of single application in subjects (Example 8); assay type: in vivo, human; settings: single application at two dose levels 0.37% w/w and 0.74% w/w
# Protocol: as §1
# [6] = Safety of single application in Phase 3 studies (Example 9); assay type: in vivo, human; settings: single application 0.74% w/w
# Protocol: A total of seven hundred and four (704) pediatric and adult subjects, six (6) months of age or older, with an active head lice infestation were enrolled in two separate Phase 3 studies. These studies assessed the efficacy of a single application of 0.74% w/w abametapir compared to a vehicle control (refer Table 9, above). Subjects were treated for 10 minutes with a lotion containing abametapir or the vehicle lotion alone. After 10 minutes the lotion was rinsed out of the subjects hair with water and towel dried. At day 1, 7 and 14 post treatment the hair was examined for the presence of live lice. If any live lice were detected on any of the three visits the subject was deemed a treatment failure. The primary endpoint to the study was that proportion of index subjects (youngest member of the household with at least 3 live lice at the commencement of the study) who were lice free at all follow-up visits through day 14.
# [7] = Day 1 of observation, formulation 52-06-01 (0.38%), 10 minute exposure
# [8] = Day 4, formulation 52-06-01, 10 minute exposure
# [9] = Day 5, formulation 52-06-01, 10 minute exposure
# [10] = Day 6, formulation 52-06-01, 10 minute exposure
# [11] = Day 7, formulation 52-06-01, 10 minute exposure
# [12] = Day 12, formulation 52-06-01, 10 minute exposure
compound,measurement,setting,value
"Cc1ccc(-c2ccc(C)cn2)nc1 [5,5′-dimethyl-2,2′-dipyridyl]",Stage of development: eggs with eye development,[1]; [7],1 eye development
same,Stage of development: eggs with no eye development,[1]; [7],9 no eye development
same,Stage of development: eggs hatched,[1]; [8],1 hatched
same,Stage of development: eggs with eye development,[1]; [8],1 eye development
same,Stage of development: eggs with no eye development,[1]; [8],8 no eye development
same,Stage of development: eggs hatched,[1]; [9],1 hatched
same,Stage of development: eggs with eye development,[1]; [9],1 eye development
same,Stage of development: eggs with no eye development,[1]; [9],8 no eye development
same,Stage of development: eggs hatched,[1]; [10],1 hatched
same,Stage of development: eggs with eye development,[1]; [10],1 eye development
same,Stage of development: eggs with no eye development,[1]; [10],8 no eye development
same,Stage of development: eggs hatched,[1]; [11],1 hatched
same,Stage of development: eggs with eye development,[1]; [11],1 eye development
same,Stage of development: eggs with no eye development,[1]; [11],8 no eye development
same,Stage of development: eggs hatched,[1]; [12],1 hatched
same,Stage of development: eggs with eye development,[1]; [12],1 eye development
same,Stage of development: eggs with no eye development,[1]; [12],8 no eye development
same,eggs in the treatment arm failed to hatch,"[1]; overall, ten eggs, 0.37% w/w formulation, 10 minute exposure",90%
same,ovicidal activity (in words),[2],significant ovicidal activity
same,Egg hatch Post-treatment,"[3]; eggs collected after single application, 14 day incubation, N = 25",0%
same,Egg hatch Pre-treatment,"[3]; eggs collected pre-treatment (baseline), 14 day incubation, N = 25",93.3%
same,Total absolute reduction in hatch rate (CI 95%),[3]; generalized estimating equation model,92.9%
same,The treatment difference in the absolute reduction of hatch rates (abametapir minus Vehicle),[3]; p < 0.0001,50.6%
same,ovicidal efficacy (eggs treated failed to hatch),"[3]; post-treatment, 14 day incubation",100%
same,subjects with treatment success (lice free at day 14),[4]; 0.37% w/w lotion,67.4%
same,subjects with treatment success (lice free at day 14),[4]; 0.74% w/w lotion,85.7%
same,safety results,[5],safe and well tolerated
same,safety results,[6],safe and well tolerated
